Source: patent US6521635B1, “Inhibition of MXR transport by acridine derivatives” (priority 2000, dated 2003)

Tests used:
[1] = tested on: S1 parental cells (low endogenous level of Pgp); experiment: Rhodamine efflux assay (flow cytometry); assay type: cell-based, human
Method: (§1) The rhodamine and calcein efflux assays were performed as previously described with minor modifications (Lee et al. (1994) Mol. Pharmacol. 46: 627-638; Versantvoort et al. (1995) Int. J. Cancer 63: 855-862.) Suspensions of logarithmic phase cells were obtained from tissue culture flasks by trypsinization and transferred into round-bottom 96-well plates. […] After the efflux period, the cells were washed with DPBS and placed on ice. A FACSort flow cytometer (Becton Dickinson, San Jose, Calif.) with a 488-nm argon laser was used to analyze the samples. Rhodamine 123 or calcein fluorescence was collected after a 530 nm bandpass filter. A minimum of 10,000 events was collected per sample and the samples were gated on forward scatter versus side scatter to exclude clumps and debris; dead cells were excluded based on propidium iodide staining.
(§2) To provide confirmation, rhodamine efflux assays were performed. […] After an accumulation and efflux period, rhodamine fluorescence was quantitated by flow cytometric analysis. The results are depicted in FIG. 2. […] PSC 833, a cyclosporin-D analog, was used as a positive control for Pgp antagonism.

[2] = tested on: MCF-7 parental cells; experiment: Rhodamine efflux assay (flow cytometry); assay type: cell-based, human
Method: To provide confirmation, rhodamine efflux assays were performed. […] The results are depicted in FIG. 2.

[3] = biological target: Pgp (Homo sapiens, UniProt P08183); details: reported in literature; cited from earlier work
[4] = tested on: patients; details: cited from earlier work
[5] = tested on: S1-M1-80 cells expressing MXR; experiment: In vitro cytotoxicity assay (sulforhodamine B staining); assay type: cell-based, human; parameters: sensitization to topotecan: dose or concentration left out as unconfirmed
Method: (§3) Reversal of resistance was determined in cytotoxicity assays using the sulforhodamine staining (Skehan et al. (1990) J. Natl. […] Briefly, cells were harvested and seeded at a density of 2000 cells/well for the colon cancer lines and 4000 cells/well for the breast cancer cell lines in flat-bottom 96-well plates. The cells were incubated for 24 h at 37° C. to allow attachment prior to addition of the drugs. […] Each concentration was tested in triplicate and the controls were done in replicates of eight. Results are representative of from three to six experiments. […] After incubation, the cells were fixed in TCA and stained with sulforhodamine B (SRB) solution (0.4% wt/vol in 1% acetic acid) (Sigma Chemical, St Louis, Mo.). Optical densities were read on a Bio-Rad plate reader (Hercules, Calif.) at an absorbance of 540 nm.

[6] = tested on: P-glycoprotein overexpressing S1-B1-20 cells; experiment: Confocal microscopy of mitoxantrone / rhodamine 123 accumulation; assay type: cell-based, human
Method: (§4) Cells were seeded in 35 mm glass-bottom microwell dishes (MatTek Corporation, Ashland, Mass.) at a density of 4000 cells/dish and incubated for 48 hours in phenol red-free IMEM supplemented with 10% fetal calf serum. […] The cells were analyzed using a Zeiss LSM 410 confocal laser scanning microscope equipped with a […] argon laser exciting mitoxantrone at 568 nm. Emitted light passed through a 590 nm long-pass filter.

[7] = tested on: MXR-expressing S1-M1-80 cells; experiment: as above; assay type: cell-based, human
Method: as §4

[8] = biological target: Pgp (Pgp-overexpressing S1-B1-20 cells) (Homo sapiens, UniProt P08183)
Method: as §1, §2

[9] = tested on: MRP-overexpressing MCF-7/VP cells; experiment: In vitro cytotoxicity assay (sulforhodamine B staining); assay type: cell-based, human
Method: Reversal of resistance was determined in cytotoxicity assays using the sulforhodamine staining (Skehan et al. (1990) J. Natl. Cancer Inst. 82: 1107-1112). Briefly, cells were harvested and seeded at a density of 2000 cells/well for the colon cancer lines and 4000 cells/well for the breast cancer cell lines in flat-bottom 96-well plates. The cells were incubated for 24 h at 37° C. to allow attachment prior to addition of the drugs. Mitoxantrone and topotecan at various concentrations were added to the cells with or without the reversal agent and were incubated at 37° C. in a fully humidified atmosphere of 5% CO2 for 96 h. Each concentration was tested in triplicate and the controls were done in replicates of eight.
After incubation, the cells were fixed in TCA and stained with sulforhodamine B (SRB) solution (0.4% wt/vol in 1% acetic acid) (Sigma Chemical, St Louis, Mo.). Optical densities were read on a Bio-Rad plate reader (Hercules, Calif.) at an absorbance of 540 nm.

[10] = tested on: S1 parental cells; experiment: as above; assay type: cell-based, human; details: Homo sapiens, read-out: IC50 for GF120918 alone; S1 parental cells
Method: as §3

[11] = as above; assay type: cell-based, human; details: human
Method: as §3

[12] = tested on: S1-B1-20 Pgp-overexpressing cells; experiment: as above; assay type: cell-based, human; details: GF120918 at 1 μM, Pgp-expressing S1-B1-20 cells
Method: as §3

[13] = tested on: MCF-7 parental cells; experiment: as above; assay type: cell-based, human; details: Homo sapiens, MCF7, read-out: IC50 for GF120918 alone; MCF-7 parental cells
Method: as §3

[14] = biological target: T1, MRP (MCF-7/VP cells) (Homo sapiens, UniProt P33527); experiment: Calcein efflux assay (FACS); assay type: cell-based; details: at 25 μM, MCF-7/VP cells (data not shown)
T1 construct: Calcein is readily effluxed in the MRP-overexpressing MCF-7/VP cells; endogenous in cells; host or cells: MCF-7/VP (maintained in 4 uM VP-16; provided by Dr. Ken Cowan)
Method: as §1
Calcein AM can be used to detect both Pgp and MRP-mediated efflux. Calcein permeates the cell in neutral form as an acetomethoxyester, calcein AM. Esterase activity cleaves the AM group leaving calcein as a fluorescent organic anion.

Pgp (Pgp-overexpressing S1-B1-20 cells), sequence (P08183 whole entry): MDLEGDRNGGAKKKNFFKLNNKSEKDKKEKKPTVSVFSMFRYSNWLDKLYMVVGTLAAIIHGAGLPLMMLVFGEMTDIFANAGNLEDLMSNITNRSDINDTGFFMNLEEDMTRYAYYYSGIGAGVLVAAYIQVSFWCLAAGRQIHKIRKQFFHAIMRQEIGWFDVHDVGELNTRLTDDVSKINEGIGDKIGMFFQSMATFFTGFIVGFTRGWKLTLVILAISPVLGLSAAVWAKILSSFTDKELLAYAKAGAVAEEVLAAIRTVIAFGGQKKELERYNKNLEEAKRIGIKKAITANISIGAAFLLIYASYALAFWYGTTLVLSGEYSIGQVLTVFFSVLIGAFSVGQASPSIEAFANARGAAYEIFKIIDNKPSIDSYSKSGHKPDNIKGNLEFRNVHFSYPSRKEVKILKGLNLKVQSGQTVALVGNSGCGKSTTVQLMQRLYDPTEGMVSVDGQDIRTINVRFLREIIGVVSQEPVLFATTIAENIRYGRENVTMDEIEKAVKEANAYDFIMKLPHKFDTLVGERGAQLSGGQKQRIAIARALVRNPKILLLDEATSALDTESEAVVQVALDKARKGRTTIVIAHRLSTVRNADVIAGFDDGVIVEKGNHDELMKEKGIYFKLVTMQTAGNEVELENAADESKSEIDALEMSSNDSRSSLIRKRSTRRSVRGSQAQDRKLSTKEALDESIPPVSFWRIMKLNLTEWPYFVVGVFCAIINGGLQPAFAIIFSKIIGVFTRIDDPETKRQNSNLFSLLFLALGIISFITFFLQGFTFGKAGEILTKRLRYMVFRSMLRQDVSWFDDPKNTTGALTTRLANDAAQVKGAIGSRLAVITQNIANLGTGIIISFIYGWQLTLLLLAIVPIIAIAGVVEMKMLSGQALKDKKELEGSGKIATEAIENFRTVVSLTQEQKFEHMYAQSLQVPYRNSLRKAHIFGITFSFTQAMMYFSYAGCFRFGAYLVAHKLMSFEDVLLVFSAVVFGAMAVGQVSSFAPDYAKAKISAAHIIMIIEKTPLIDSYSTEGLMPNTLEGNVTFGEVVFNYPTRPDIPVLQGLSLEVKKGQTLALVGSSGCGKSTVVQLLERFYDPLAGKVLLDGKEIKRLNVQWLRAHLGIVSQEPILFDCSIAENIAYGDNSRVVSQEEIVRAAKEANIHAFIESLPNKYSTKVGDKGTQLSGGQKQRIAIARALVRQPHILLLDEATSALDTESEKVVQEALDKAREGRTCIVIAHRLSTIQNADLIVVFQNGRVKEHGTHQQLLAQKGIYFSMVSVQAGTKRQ
Pgp, sequence (P08183 whole entry): as above
T1 sequence (P33527 whole entry): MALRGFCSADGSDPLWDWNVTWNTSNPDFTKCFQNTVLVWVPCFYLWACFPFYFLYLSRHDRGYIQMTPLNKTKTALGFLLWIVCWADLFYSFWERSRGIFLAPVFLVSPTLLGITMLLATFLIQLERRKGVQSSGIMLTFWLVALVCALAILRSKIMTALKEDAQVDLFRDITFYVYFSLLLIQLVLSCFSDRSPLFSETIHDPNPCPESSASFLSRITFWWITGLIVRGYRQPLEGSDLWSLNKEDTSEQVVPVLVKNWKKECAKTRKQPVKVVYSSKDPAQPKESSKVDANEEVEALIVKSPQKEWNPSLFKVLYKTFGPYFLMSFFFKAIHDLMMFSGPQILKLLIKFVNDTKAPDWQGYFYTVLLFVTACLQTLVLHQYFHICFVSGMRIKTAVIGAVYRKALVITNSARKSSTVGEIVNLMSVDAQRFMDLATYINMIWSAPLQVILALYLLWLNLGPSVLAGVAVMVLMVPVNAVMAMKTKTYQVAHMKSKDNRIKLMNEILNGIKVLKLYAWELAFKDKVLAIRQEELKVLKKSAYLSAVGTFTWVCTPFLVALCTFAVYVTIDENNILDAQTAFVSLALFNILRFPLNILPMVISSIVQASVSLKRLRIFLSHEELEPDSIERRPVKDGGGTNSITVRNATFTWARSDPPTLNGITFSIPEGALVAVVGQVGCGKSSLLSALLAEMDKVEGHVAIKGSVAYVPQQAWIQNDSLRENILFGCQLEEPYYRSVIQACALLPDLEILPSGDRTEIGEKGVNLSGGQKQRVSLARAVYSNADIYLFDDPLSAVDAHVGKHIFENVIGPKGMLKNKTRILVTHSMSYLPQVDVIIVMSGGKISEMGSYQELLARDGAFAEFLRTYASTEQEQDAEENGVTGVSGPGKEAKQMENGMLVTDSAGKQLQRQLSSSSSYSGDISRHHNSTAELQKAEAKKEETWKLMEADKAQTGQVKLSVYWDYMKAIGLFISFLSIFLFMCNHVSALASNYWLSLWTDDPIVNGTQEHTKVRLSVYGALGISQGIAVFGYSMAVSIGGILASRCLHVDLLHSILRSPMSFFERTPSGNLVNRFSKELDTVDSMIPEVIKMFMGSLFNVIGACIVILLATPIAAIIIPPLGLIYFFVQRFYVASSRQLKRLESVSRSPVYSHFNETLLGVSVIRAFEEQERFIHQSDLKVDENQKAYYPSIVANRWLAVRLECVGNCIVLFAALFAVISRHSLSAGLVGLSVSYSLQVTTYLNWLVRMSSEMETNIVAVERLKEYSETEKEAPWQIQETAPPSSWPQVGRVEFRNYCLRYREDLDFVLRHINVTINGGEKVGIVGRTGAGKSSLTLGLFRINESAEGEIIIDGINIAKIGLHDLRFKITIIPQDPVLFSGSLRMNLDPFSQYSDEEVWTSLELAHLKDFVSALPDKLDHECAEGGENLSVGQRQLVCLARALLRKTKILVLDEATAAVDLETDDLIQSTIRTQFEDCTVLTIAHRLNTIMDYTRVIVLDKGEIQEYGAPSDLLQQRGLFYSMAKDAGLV

concentration giving complete inhibition of rhodamine efflux [8]: 250 nM
lowest concentrations at which rhodamine 123 efflux was decreased [8]: 25 to 50 nM
reversal of MRP-mediated calcein efflux [14]: only slight reversal
SMILES: COc1cc2c(cc1OC)CN(CCc1ccc(NC(=O)c3cccc4c(=O)c5cccc(OC)c5[nH]c34)cc1)CC2 [GF120918]
effect on rhodamine accumulation and efflux [1]: small increase in rhodamine accumulation and a decrease in efflux
effect on rhodamine efflux [2]: No effect
concentrations inhibiting Pgp-mediated efflux [3]: nanomolar concentrations
toxicity in phase I clinical trials [4]: little toxicity
sensitization to mitoxantrone ([5]; GF120918 at 1 μM, S1-M1-80 cells expressing MXR): 1850 fold
IC50 ([5]; Homo sapiens, S1-M1-80, read-out: IC50 for GF120918 alone, S1-M1-80 cells): 2.5 µM
sensitization to topotecan ([5]; S1-M1-80 cells): 23 fold
rhodamine 123 accumulation ([6]; 0.4 μM GF120918): enhanced
mitoxantrone fluorescence ([6]; 0.4 μM GF120918 during mitoxantrone incubation (data not shown)): level comparable to that of the parental line
effect on mitoxantrone fluorescence ([7]; 0.4 μM GF120918): less marked
mitoxantrone level (accumulation, nuclear staining) ([7]; 10 μM and 50 μM GF120918 (data not shown)): full reversal had been achieved
concentration for full reversal of the rhodamine accumulation defect ([7]; S1-M1-80 cells): 10 µM
concentration at which the rhodamine 123 accumulation defect was reversed ([7]; S1-M1-80 cells (data not shown)): 2 µM
IC50 ([9]; Homo sapiens, MCF7-VP, read-out: IC50 for GF120918 alone, MCF-7/VP cells): 7.5 µM
reversing MRP-mediated resistance ([9]; cytotoxicity reversal studies with etoposide, MRP-overexpressing MCF-7 VP-16 cells (data not shown)): ineffective
IC50 [10]: 15.2 µM
IC50 at 96 h [11]: 3.6 µM
sensitization to mitoxantrone [12]: 31 fold
IC50 [13]: 40 µM
